Laboratory results reported in patent US20260216193A1, “TREATMENT OF HAND ECZEMA” (LEO Pharma A/S, priority 2016, published 2026).
“Also recorded” adds a separate entry of the source.

Tested on: subjects with chronic hand eczema
Assay: phase 2a clinical trial, twice daily topical ointment 30 mg/g vs ointment vehicle for 8 weeks
Format: in vivo, human
Description: The invention provides a clinical trial to compare efficacy of twice daily topical ointment with 30 mg/g of the compound of formula (I), with an ointment vehicle for 8 weeks in the treatment of hand eczema. The compound of formula (I) is formulated in an ointment containing the active compound in 30 mg/g, white soft paraffin, hard paraffin and squalane. Dosis range will be a thin layer covering the affected areas on the hands corresponding to 1.7 mg/cm^2 of the compound of formula (I). The primary efficacy parameter for ‘treatment success’ is Physician's Global Assessment of disease severity (PGA). […] Patient's Global Assessment of disease severity (PaGA) was recorded at the same visits. • 1. […] In overall good health including well controlled diseases (e.g. hypertension, diabetes and thyroid disease) as determined by medical history, physical examination, electrocardiogram (ECG), vital signs (blood pressure, heart rate and body temperature) and clinical laboratory evaluation. […]

`C[C@H]1CN(C(=O)CC#N)[C@]12CCN(c1ncnc3[nH]ccc13)C2` [compound of formula (I), 3-[(3S,4R)-3-methyl-6-(7H-pyrrolo[2,3-d]pyrimidin-4-yl)-1,6-diazaspiro[3.4]octan-1-yl]-3-oxopropanenitrile] was tested, and the ““treatment success” according to Physician's Global Assessment of disease severity (PGA)” value (ointment 30 mg/g twice daily topical vs ointment vehicle, up to 8 weeks, prespecified analysis at week 8, subjects with chronic hand eczema) was “resulted in “treatment success”; also recorded: statistically significant (P=0.009) difference in favor” and the safety and tolerability (ointment 30 mg/g, twice daily topical, patients with hand eczema) was “safe and well tolerated”.
